Data from paper PMC4778445, “Measurement of free glucocorticoids: quantifying corticosteroid-binding globulin binding affinity and its variation within and among mammalian species” (Conservation Physiology, 2015).

Assays:
Assay in all cases: radioligand saturation binding, dextran-coated charcoal separation
[1] = molecular target: T1, corticosteroid-binding globulin (CBG), deer mouse (Peromyscus maniculatus, UniProt A0A6J0EC89); conditions: labelled compound ([1,2,6,7-3H]corticosterone); 37 °C, ≥4 h, PBS with gelatin; separation at 0 °C; plasma 1/200; error SEM
T1 construct: gene Serpina6; native protein in charcoal-stripped plasma, not purified
T1 sequence (A0A6J0EC89 23-402): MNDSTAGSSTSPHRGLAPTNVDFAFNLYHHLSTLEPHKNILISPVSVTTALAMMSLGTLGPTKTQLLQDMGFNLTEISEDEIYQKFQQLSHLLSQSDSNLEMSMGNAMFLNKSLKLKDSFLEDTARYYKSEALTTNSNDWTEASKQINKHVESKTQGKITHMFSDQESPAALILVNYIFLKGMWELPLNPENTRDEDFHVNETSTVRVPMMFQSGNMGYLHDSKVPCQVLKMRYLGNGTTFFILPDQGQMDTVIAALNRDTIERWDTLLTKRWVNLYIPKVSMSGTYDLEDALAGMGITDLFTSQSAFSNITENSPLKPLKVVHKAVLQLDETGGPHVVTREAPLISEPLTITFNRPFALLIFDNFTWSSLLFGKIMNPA
From the text: radioligand saturation binding, dextran-coated charcoal separation on corticosteroid-binding globulin (CBG), deer mouse

[2] = molecular target: T2, corticosteroid-binding globulin (CBG), meadow vole (Microtus pennsylvanicus, UniProt Z9TXB6IQC5); conditions: labelled compound ([1,2,6,7-3H]corticosterone); 37 °C, ≥4 h, PBS with gelatin; separation at 0 °C; plasma 1/50; mean of two runs; error SEM
T2 construct: native protein in charcoal-stripped plasma, not purified
T2 sequence (Z9TXB6IQC5 21-398): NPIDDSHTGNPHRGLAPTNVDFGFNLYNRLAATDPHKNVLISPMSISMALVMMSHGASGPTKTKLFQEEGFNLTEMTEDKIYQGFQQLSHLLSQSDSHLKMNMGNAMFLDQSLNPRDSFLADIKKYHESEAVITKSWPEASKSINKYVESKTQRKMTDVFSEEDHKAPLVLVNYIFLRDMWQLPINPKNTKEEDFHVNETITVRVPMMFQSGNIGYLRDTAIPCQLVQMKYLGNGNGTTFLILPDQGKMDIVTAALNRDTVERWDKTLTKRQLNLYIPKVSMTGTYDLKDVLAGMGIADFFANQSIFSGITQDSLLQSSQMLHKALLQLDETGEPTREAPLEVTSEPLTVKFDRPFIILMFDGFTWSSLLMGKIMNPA
From the text: radioligand saturation binding, dextran-coated charcoal separation on corticosteroid-binding globulin (CBG), meadow vole

[3] = molecular target: T3, corticosteroid-binding globulin (CBG), Arctic wolf (Canis lupus, UniProt A0A8I3MUM2); conditions: labelled compound ([1,2,6,7-3H]cortisol); 37 °C, ≥4 h, PBS with gelatin; separation at 0 °C; serum 1/50; non-specific binding subtracted; error SEM
T3 construct: gene SERPINA6; native protein in charcoal-stripped serum (Toronto Zoo), not purified
T3 sequence (A0A8I3MUM2 23-404): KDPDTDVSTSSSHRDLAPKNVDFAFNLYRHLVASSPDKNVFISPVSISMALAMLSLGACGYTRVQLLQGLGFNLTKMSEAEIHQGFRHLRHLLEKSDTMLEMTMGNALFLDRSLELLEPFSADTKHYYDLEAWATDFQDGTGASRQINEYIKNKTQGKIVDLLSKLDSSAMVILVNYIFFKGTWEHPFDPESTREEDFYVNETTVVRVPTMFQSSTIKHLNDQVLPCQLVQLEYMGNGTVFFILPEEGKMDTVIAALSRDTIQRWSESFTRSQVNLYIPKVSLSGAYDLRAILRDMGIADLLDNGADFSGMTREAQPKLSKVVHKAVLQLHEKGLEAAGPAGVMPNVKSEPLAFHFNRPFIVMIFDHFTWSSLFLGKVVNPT
From the text: radioligand saturation binding, dextran-coated charcoal separation on corticosteroid-binding globulin (CBG), Arctic wolf

[4] = molecular target: T4, corticosteroid-binding globulin (CBG), Soay sheep (Ovis aries, UniProt P49920); conditions: labelled compound ([1,2,6,7-3H]cortisol); 37 °C, ≥4 h, PBS with gelatin; separation at 0 °C; plasma 1/50; error SEM
T4 construct: gene SERPINA6; native protein in charcoal-stripped plasma, not purified
T4 sequence (P49920 23-430): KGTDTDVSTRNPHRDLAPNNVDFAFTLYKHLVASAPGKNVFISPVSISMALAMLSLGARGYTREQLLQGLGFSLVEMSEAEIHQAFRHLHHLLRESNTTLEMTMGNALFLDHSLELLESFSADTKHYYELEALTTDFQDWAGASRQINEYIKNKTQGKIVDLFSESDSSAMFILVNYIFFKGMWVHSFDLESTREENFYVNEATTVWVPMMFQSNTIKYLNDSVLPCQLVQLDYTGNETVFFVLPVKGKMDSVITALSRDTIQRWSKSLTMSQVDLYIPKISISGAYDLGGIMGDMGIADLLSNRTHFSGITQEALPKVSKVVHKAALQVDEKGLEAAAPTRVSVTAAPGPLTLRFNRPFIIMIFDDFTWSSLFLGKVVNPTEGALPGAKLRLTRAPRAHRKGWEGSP
From the text: radioligand saturation binding, dextran-coated charcoal separation on corticosteroid-binding globulin (CBG), Soay sheep

[5] = molecular target: T5, corticosteroid-binding globulin (CBG), Siberian tiger (Panthera tigris, UniProt A0A8C9K299); conditions: labelled compound ([1,2,6,7-3H]cortisol); 37 °C, ≥4 h, PBS with gelatin; separation at 0 °C; serum 1/50; non-specific binding subtracted; error SEM
T5 construct: native protein in charcoal-stripped serum (Toronto Zoo), not purified
T5 sequence (A0A8C9K299 23-403): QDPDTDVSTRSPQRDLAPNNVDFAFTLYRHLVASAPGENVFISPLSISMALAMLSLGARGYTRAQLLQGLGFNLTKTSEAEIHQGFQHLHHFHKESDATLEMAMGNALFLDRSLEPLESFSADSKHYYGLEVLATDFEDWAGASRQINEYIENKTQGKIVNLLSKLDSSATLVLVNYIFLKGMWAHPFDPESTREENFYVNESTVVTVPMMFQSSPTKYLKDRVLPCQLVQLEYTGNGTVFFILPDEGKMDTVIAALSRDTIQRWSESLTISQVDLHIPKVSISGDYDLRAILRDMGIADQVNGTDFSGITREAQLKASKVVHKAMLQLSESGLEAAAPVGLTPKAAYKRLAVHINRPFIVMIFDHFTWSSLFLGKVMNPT
From the text: radioligand saturation binding, dextran-coated charcoal separation on corticosteroid-binding globulin (CBG), Siberian tiger

[6] = molecular target: T6, corticosteroid-binding globulin (CBG), cheetah (Acinonyx jubatus, UniProt A0A6I9ZWD2); conditions: labelled compound ([1,2,6,7-3H]cortisol); 37 °C, ≥4 h, PBS with gelatin; separation at 0 °C; serum 1/50; error SEM
T6 construct: gene LOC106977455; native protein in charcoal-stripped serum (Toronto Zoo), not purified
T6 sequence (A0A6I9ZWD2 23-404): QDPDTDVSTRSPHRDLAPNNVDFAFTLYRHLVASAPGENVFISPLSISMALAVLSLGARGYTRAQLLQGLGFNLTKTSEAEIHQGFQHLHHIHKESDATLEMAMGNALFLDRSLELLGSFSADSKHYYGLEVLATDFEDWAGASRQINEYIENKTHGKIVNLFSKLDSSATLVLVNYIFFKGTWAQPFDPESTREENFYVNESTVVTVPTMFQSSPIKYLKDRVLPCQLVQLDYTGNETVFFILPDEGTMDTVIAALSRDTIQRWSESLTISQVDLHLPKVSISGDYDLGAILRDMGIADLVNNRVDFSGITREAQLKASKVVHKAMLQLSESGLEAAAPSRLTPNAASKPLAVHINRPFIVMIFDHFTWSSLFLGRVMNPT
From the text: radioligand saturation binding, dextran-coated charcoal separation on corticosteroid-binding globulin (CBG), cheetah

[7] = molecular target: T7, corticosteroid-binding globulin (CBG), alpaca (Vicugna pacos, UniProt A0A6I9IEG0); conditions: labelled compound ([1,2,6,7-3H]cortisol); 37 °C, ≥4 h, PBS with gelatin; separation at 0 °C; serum 1/50; non-specific binding subtracted; error SEM
T7 construct: gene SERPINA6; native protein in charcoal-stripped serum (Toronto Zoo), not purified
T7 sequence (A0A6I9IEG0 18-405): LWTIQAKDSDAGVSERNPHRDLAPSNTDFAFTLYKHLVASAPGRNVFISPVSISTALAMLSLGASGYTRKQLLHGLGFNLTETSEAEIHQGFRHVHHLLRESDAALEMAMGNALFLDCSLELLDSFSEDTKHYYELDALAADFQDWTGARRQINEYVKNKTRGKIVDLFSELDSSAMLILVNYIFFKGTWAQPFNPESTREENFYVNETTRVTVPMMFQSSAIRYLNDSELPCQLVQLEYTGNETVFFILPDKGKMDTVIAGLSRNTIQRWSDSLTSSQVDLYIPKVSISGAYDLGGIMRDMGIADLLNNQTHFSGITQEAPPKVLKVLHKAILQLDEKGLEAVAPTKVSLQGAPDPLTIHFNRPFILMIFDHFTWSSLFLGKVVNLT
From the text: radioligand saturation binding, dextran-coated charcoal separation on corticosteroid-binding globulin (CBG), alpaca

[8] = molecular target: T8, corticosteroid-binding globulin (CBG), Bactrian camel (Camelus bactrianus, UniProt A0A9W3H1V5); conditions: labelled compound ([1,2,6,7-3H]cortisol); 37 °C, ≥4 h, PBS with gelatin; separation at 0 °C; serum 1/50; non-specific binding subtracted; error SEM
T8 construct: gene LOC105079894; native protein in charcoal-stripped serum (Toronto Zoo), not purified
T8 sequence (A0A9W3H1V5 24-405 limits assumed): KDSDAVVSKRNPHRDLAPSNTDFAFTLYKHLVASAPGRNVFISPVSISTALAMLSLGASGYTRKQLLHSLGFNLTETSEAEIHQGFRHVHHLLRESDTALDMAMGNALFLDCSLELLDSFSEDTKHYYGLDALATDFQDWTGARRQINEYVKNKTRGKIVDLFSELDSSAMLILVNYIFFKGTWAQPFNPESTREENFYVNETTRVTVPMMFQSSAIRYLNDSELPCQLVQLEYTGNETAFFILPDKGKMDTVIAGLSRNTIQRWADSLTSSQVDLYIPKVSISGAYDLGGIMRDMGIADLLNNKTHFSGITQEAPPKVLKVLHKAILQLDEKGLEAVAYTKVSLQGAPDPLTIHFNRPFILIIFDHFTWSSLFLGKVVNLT
From the text: radioligand saturation binding, dextran-coated charcoal separation on corticosteroid-binding globulin (CBG), Bactrian camel

[9] = molecular target: T9, corticosteroid-binding globulin (CBG), Arctic ground squirrel (Urocitellus parryii, UniProt A0A8D2GQE2); conditions: labelled compound ([1,2,6,7-3H]cortisol); 37 °C, ≥4 h, PBS with gelatin; separation at 0 °C; plasma 1/50; mean of four runs; error SEM
T9 construct: gene SERPINA6; native protein in charcoal-stripped plasma, not purified
T9 sequence (A0A8D2GQE2 23-403): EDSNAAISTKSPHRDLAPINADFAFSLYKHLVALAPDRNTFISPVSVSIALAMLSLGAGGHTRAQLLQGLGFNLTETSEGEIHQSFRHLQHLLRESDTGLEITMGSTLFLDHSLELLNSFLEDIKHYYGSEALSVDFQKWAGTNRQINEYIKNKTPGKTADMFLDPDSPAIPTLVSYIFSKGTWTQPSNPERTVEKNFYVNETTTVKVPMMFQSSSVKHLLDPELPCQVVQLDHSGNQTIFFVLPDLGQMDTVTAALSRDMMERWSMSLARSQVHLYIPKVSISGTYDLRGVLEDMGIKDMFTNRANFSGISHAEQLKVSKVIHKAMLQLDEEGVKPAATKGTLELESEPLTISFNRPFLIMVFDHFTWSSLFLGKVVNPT
From the text: radioligand saturation binding, dextran-coated charcoal separation on corticosteroid-binding globulin (CBG), Arctic ground squirrel

Row | Compound | Kd [1] | Kd [2] | Kd [3] | Kd [4] | Kd [5] | Kd [6] | Kd [7] | Kd [8] | Kd [9]
1 | C[C@]12C[C@H](O)[C@H]3[C@@H](CCC4=CC(=O)CC[C@@]43C)[C@@H]1CC[C@@H]2C(=O)CO [B, corticosterone] | 4.9 ± 0.61 nM | 5.4 ± 1.2 nM |  |  |  |  |  |  | 
2 | C[C@]12CCC(=O)C=C1CC[C@@H]1[C@@H]2[C@@H](O)C[C@@]2(C)[C@H]1CC[C@]2(O)C(=O)CO [F, cortisol] |  |  | 0.8 ± 0.11 nM | 1.7 ± 0.55 nM | 0.7 ± 0.19 nM | 8 ± 2.4 nM | 0.6 ± 0.15 nM | 1 ± 0.16 nM | 4 ± 0.4 nM
